Assay results published in US12590950B2, “Methods for predicting ER-mediated DNA damage” (UNIVERSITY OF MASSACHUSETTS, priority 2019, dated 2026).

Columns and labels:
MCF-7 cells = test: γH2AX immunostaining (DNA damage) in MCF-7 cells; assay type: cell-based, human; conditions: E2 10-100 nM, BP3 1-30 μM, PP 1-30 μM
Experimental: (§1) Immunostaining: Cells were grown in clearing media for 48 h and plated on 20 mm coverslip in 12 well plates with a density of 2×10^5 cells/well. […] Cells were washed with 1×PBS, blocked in 2% BSA/PBS with 0.1% Triton-X 100 for 1 hr at room temperature (RT), incubated overnight with γH2AX antibody (Cell Signaling #9718 S) or ERα antibody (Santa Cruz Biotechnology #sc-8002) at 4° C. and 1 hour with secondary antibody. S9.6: Cells were fixed in ice-cold 100% methanol for 10 min at −20° C., permeabilized in 100% acetone for 1 min at RT, blocked for 30 min in saline sodium citrate pH 7 (SSC, 4×), 3% BSA, 0.1% Triton-X and incubated with S9.6 (Kerafast #ENH001) 2 hr at RT followed by 1 h with secondary antibody. If indicated, slides were treated with RNase H (NEB #M0297L) for 4 hr at 37° C. prior to incubation with primary antibody. Stained cells were mounted with Vectashield mounting medium containing DAPI (Vector Laboratories #H-1200). Slides were imaged at 60× (immersion oil) with Nikon A1 Spectral Confocal microscope. Analysis of γH2AX and S9.6 intensity per nucleus or foci per nucleus was calculated using Nikon analysis software, where DAPI was used as a mask for the nucleus.

Areg and Pgr = test: Acute oral exposure of ovariectomized mice: Areg and Pgr expression in mammary gland; assay type: in vivo, mouse; conditions: 4 days, E2 250, BP3 3,000, PP 10,000 μg/kg/day
Experimental: RT-qPCR: RNA from T47D cells, MCF-7 Cells or flash-frozen 4th mammary gland was isolated with TRIzol (Thermofisher Scientific #15596018) and Direct-zol RNA MiniPrep Plus (Zymo Research #R2072). cDNA was prepared with Protoscript II First Strand cDNA Synthesis Kit (New England Biolabs #E6560S) and qPCR for TFF1, progesterone receptor (PGR) and Amphiregulin (AREG) was performed on CFX96 Real-Time System thermocycler (Bio-Rad) using primers in Table 1.
(§2) Animal Treatment: Forty mature female mice (8 weeks old) BALB/c mice were purchased from Jackson Laboratory and housed in temperature-controlled facilities with a 12-hour alternating day/night light cycle and fed LabChow 5058 ad libitum. All procedures were in accordance with the national guidelines for the care and use of animals and approved by the University of Massachusetts Amherst's Institutional Animal Care and Use Committee.
(§3) The mice were ovariectomized before treatment. Briefly, each mouse was anaesthetized with a mix of isofluorance and oxygen. The flanks were shaved, sterilized with betadine and cleaned with alcohol. An incision was made to the skin on the right flank. The underlying muscle layer was nicked to reveal a small hole through which ovary was pulled out by grasping the periovarian fat. A Serrifin clamp was used to hold the ovary. After making sure the blood vessels were constricted to prevent […], the ovary was cut from the uterine horn. The periovarian fat was restored into the peritoneum. The peritoneum was closed with one or two stiches and the skin was closed with 9 mm wound clips. The procedure was repeated on the contralateral side. The mouse was monitored for a week post-procedure and wound clips were removed after 10 days. After 1 week of recovery, the mice began an acute oral treatment via pipette with one of three different compounds prepared in tocopherol-stripped corn oil for 4 days. Each mouse was administered 1 μL of oil per gram of body weight to deliver 250 μg/kg/d E2, 3000 μg/kg/d BP3 or 10000 μg/kg/d PP or vehicle control. […]

T47D cells [1] = test: γH2AX immunostaining (DNA damage) in T47D cells; assay type: cell-based, human; conditions: T47D, 24 h; E2 10 or 100 nM, BP3 1 or 5 μM, PP 1 or 5 μM; vs control
Experimental: as §1

mammary epithelium = test: Acute oral exposure of ovariectomized mice: Ki67 proliferation of luminal epithelial cells; assay type: in vivo, mouse; conditions: 4 days, E2 250, BP3 3,000, PP 10,000 μg/kg/day
Text: as §2, §3
Immunostaining of mouse mammary gland: Freshly cut […] paraffin-embedded sections were deparaffinized/rehydrated with 100% xylenes 3 times for 5 min each, 2 times with 100% ethanol for 5 min each, 95% ethanol for 3 min and 70% ethanol for 3 min. […] Analysis of S9.6 intensity per nucleus or foci per nucleus were calculated using Nikon analysis software, where DAPI was used as a mask for the nucleus. […] Positive cells were counted using ImageJ software. 1200 cells were counted to determine percent Ki67 positive.

T47D cells [2] = test: Cell proliferation assay (alamar blue) in T47D cells; assay type: cell-based, human
Experimental: Cell Proliferation Assay: T47D cells grown in clearing media for 72 h was plated as 100 μl of cells suspension having 5000 or 10000 cells per well on five 96 well plates (one for each day). The 96 well plate had 12 cell-free wells for a blank and 7 wells per treatment on each plate. After 24 h, 100 μl of E2, BP3 or PP containing media was added to appropriate wells on each plate to reach the desired final concentration in each well. All plates were maintained in a 37° C., 5% CO2 incubator until media was exchanged, on one plate per day, for 10% Alamar Blue in plating media. Plates were read at the same time each day at 4 hr and 8 hr after media exchange on a BioTek Synergy 2 plate reader (Winooski, VT) at 570 nm and 600 nm. Percent alamar blue reduction was calculated as per the following equation on the AlamarBlue protocol: […]

SMILES: COc1ccc(C(=O)c2ccccc2)c(O)c1 [BP3, 2-Hydroxy-4-methoxybenzophenone]
- nuclear γH2AX intensity (MCF-7 cells): dose-dependent increase in nuclear γH2AX intensity
- transcriptional activation of ER-target genes (Areg and Pgr) (Areg and Pgr): neither BP3 nor PP elicited significant responses
- nuclear γH2AX intensity (T47D cells [1]): increased γH2AX intensity
- proliferation (Ki67) of mammary luminal epithelial cells (mammary epithelium): neither BP3 nor PP elicited significant responses
- Slope of growth curve (T47D cells [2]; 5 μM): 0.0202
- Slope of growth curve (T47D cells [2]; 50 μM): 0.01581
- proliferation (T47D cells [2]; 5 or 50 μM): marginal effect

SMILES: C[C@]12CC[C@@H]3c4ccc(O)cc4CC[C@H]3[C@@H]1CC[C@@H]2O [E2, 17β-estradiol, reference compound]
- nuclear γH2AX intensity (MCF-7 cells): dose-dependent increase in nuclear γH2AX intensity
- transcriptional activation of ER-target genes (Areg and Pgr) (Areg and Pgr): stimulated
- nuclear γH2AX intensity (T47D cells [1]): dose-dependent increase
- proliferation (Ki67) of mammary luminal epithelial cells (mammary epithelium): stimulated
- Slope of growth curve (T47D cells [2]; 0.5 nM): 0.08495

SMILES: CCCOC(=O)c1ccc(O)cc1 [PP, propyl parahydroxybenzoate]
- nuclear γH2AX intensity (MCF-7 cells): dose-dependent increase in nuclear γH2AX intensity
- transcriptional activation of ER-target genes (Areg and Pgr) (Areg and Pgr): neither BP3 nor PP elicited significant responses
- nuclear γH2AX intensity (T47D cells [1]): significantly higher γH2AX intensity
- proliferation (Ki67) of mammary luminal epithelial cells (mammary epithelium): neither BP3 nor PP elicited significant responses
- Slope of growth curve (T47D cells [2]; 1 μM): 0.01856
- Slope of growth curve (T47D cells [2]; 10 μM): 0.06387
- proliferation (T47D cells [2]; 10 μM): stimulates significant proliferation
